Results: PubChem BioAssay (NCI)
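Growth conditions: 96-well plates. Treatment: test compound, 48 hours, 5 concentrations. Analysis: linear interpolation between bracketing concentrations; unreached endpoints set to highest concentration. TGI denotes the concentration required for complete inhibition of growth.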

How the values were obtained:
Assay in all cases: NCI tumour cell line growth inhibition, 48 h
MOLT-4 leukemia = tested on: MOLT-4 leukemia
COLO 205 colon = tested on: COLO 205 colon
SR leukemia = tested on: SR leukemia
KM12 colon = tested on: KM12 colon
SN12C renal = tested on: SN12C renal
NCI-H226 lung = tested on: NCI-H226 lung
OVCAR-3 ovarian = tested on: OVCAR-3 ovarian
SF-268 CNS = tested on: SF-268 CNS
HT29 colon = tested on: HT29 colon
EKVX NSCLC = tested on: EKVX NSCLC
RXF 393 renal = tested on: RXF 393 renal
786-0 renal = tested on: 786-0 renal
CCRF-CEM leukemia = tested on: CCRF-CEM leukemia
SK-MEL-28 melanoma = tested on: SK-MEL-28 melanoma
UO-31 renal = tested on: UO-31 renal
MDA-MB-435 = tested on: MDA-MB-435
MCF7 breast = tested on: MCF7 breast
TK-10 renal = tested on: TK-10 renal
HOP-92 NSCLC = tested on: HOP-92 NSCLC
SNB-19 CNS = tested on: SNB-19 CNS
NCI-H23 lung = tested on: NCI-H23 lung
DU-145 prostate = tested on: DU-145 prostate
M14 melanoma = tested on: M14 melanoma
ACHN renal = tested on: ACHN renal
SF-539 CNS = tested on: SF-539 CNS
HCT-116 colon = tested on: HCT-116 colon
SF-295 CNS = tested on: SF-295 CNS
PC-3 prostate = tested on: PC-3 prostate
OVCAR-8 ovarian = tested on: OVCAR-8 ovarian
OVCAR-5 ovarian = tested on: OVCAR-5 ovarian
NCI/ADR-RES ovarian = tested on: NCI/ADR-RES ovarian
K-562 leukemia = tested on: K-562 leukemia
A498 renal = tested on: A498 renal
HCT-15 colon = tested on: HCT-15 colon
U251 CNS = tested on: U251 CNS
NCI-H460 lung = tested on: NCI-H460 lung
MALME-3M melanoma = tested on: MALME-3M melanoma
RPMI-8226 leukemia = tested on: RPMI-8226 leukemia
SW-620 colon = tested on: SW-620 colon
MDA-N = tested on: MDA-N
UACC-257 melanoma = tested on: UACC-257 melanoma
A549 NSCLC = tested on: A549 NSCLC
HOP-62 NSCLC = tested on: HOP-62 NSCLC
BT-549 breast = tested on: BT-549 breast
HL-60(TB) leukemia = tested on: HL-60(TB) leukemia

Measured: TGI

CC(=O)Nc1nnc(S(C)(=O)=O)s1
> 100 µM: MOLT-4 leukemia | COLO 205 colon | SR leukemia | KM12 colon | SN12C renal | NCI-H226 lung | OVCAR-3 ovarian | SF-268 CNS | HT29 colon | EKVX NSCLC | RXF 393 renal | 786-0 renal | CCRF-CEM leukemia | SK-MEL-28 melanoma | UO-31 renal | MDA-MB-435 | MCF7 breast | TK-10 renal | HOP-92 NSCLC | SNB-19 CNS | NCI-H23 lung | DU-145 prostate | M14 melanoma | ACHN renal | SF-539 CNS | HCT-116 colon | SF-295 CNS | PC-3 prostate | OVCAR-8 ovarian | OVCAR-5 ovarian | NCI/ADR-RES ovarian | K-562 leukemia | A498 renal | HCT-15 colon | U251 CNS | NCI-H460 lung | MALME-3M melanoma | RPMI-8226 leukemia | SW-620 colon | MDA-N | UACC-257 melanoma | A549 NSCLC | HOP-62 NSCLC | BT-549 breast | HL-60(TB) leukemia
